“And” between values parts separate entries of the source, which are not always exact repeats. Equal entries are not always repeated.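 Following 48 hours of exposure in 96-well plates, responses at five concentrations were used to interpolate endpoints linearly. GI50 is the concentration that inhibits growth by half. TGI is the concentration that stops growth completely.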
Columns and labels:
Assay in all cases: inhibition of tumour cell growth, NCI panel, 48 h
HS 578T breast = test system: HS 578T breast
TK-10 renal = test system: TK-10 renal
UACC-62 melanoma = test system: UACC-62 melanoma
OVCAR-3 ovarian = test system: OVCAR-3 ovarian
SK-OV-3 ovarian = test system: SK-OV-3 ovarian
M14 melanoma = test system: M14 melanoma
HCC-2998 colon = test system: HCC-2998 colon
UO-31 renal = test system: UO-31 renal

Row | SMILES | GI50 (HS 578T breast) | TGI (HS 578T breast) | GI50 (TK-10 renal) | TGI (TK-10 renal) | GI50 (UACC-62 melanoma) | TGI (UACC-62 melanoma) | GI50 (OVCAR-3 ovarian) | TGI (OVCAR-3 ovarian) | GI50 (SK-OV-3 ovarian) | TGI (SK-OV-3 ovarian) | GI50 (M14 melanoma) | TGI (M14 melanoma) | GI50 (HCC-2998 colon) | TGI (HCC-2998 colon) | GI50 (UO-31 renal) | TGI (UO-31 renal)
1 | Cn1cc(C2=C(c3cn(CCCCCN)c4ccccc34)C(=O)NC2=O)c2ccccc21 | 11.5 µM | > 25 µM | 10.6 µM | > 25 µM | 10.3 µM | > 25 µM | 7.8 µM | > 23.2 µM | 10.9 µM | > 25 µM | 12.4 µM | > 25 µM | > 25 µM | > 25 µM | 5.52 µM | > 25 µM
2 | CC(C)N=c1cc2n(-c3ccc(Cl)cc3)c3ccccc3nc-2cc1Nc1ccc(Cl)cc1 |  |  |  | > 100 µM | 1.96 µM | > 50 µM | 1.21 µM | 2.76 µM | 2.15 µM | > 50 µM | 1.01 µM and 2.29 µM | 2.31 µM and 5.62 µM |  |  |  | 
3 | Cc1cc(S(=O)(=O)N/N=C(\Sc2cc(Cl)c(C)cc2S(N)(=O)=O)c2ccc(Cl)cc2)c(Cl)cc1Cl | > 100 µM | > 100 µM | > 100 µM | > 100 µM | > 100 µM | > 100 µM | 31.1 µM | > 100 µM | > 100 µM | > 100 µM | > 100 µM | > 100 µM |  |  | 57.1 µM | > 100 µM
4 | Cc1cc2c(cc1Cl)SC(=Nc1ccc(Cl)cc1)N(S(=O)(=O)c1ccccc1)S2(=O)=O | 20.7 µM | 45.9 µM | 11.9 µM | 24.6 µM | 11.6 µM | 23.8 µM | 1.55 µM | 7.11 µM | 12 µM | 44.4 µM | 12.6 µM | 27.6 µM |  |  | 13.5 µM | 32.7 µM
5 | Cc1ccc(S(=O)(=O)NCCNc2nccc(-c3c(-c4ccc(F)cc4)nc4sccn34)n2)cc1 | 7.7 µM | 75.5 µM | 7.8 µM | 42.6 µM | 3.95 µM | > 100 µM |  |  | 12.4 µM | 40.3 µM |  |  | > 100 µM | > 100 µM | 2.38 µM | > 100 µM
6 | CC1CCC(=O)C(C(=O)CC2CC(=O)NC(=O)C2)C1 (stereo unspecified) |  | > 100 µM |  | > 100 µM |  | > 100 µM |  | > 100 µM |  | > 100 µM |  | > 100 µM |  | > 100 µM |  | > 100 µM
7 | O=C(Nc1ccc(CO)cc1)c1coc2ccccc2c1=O | 16.2 µM | 78.1 µM | > 100 µM | > 100 µM | > 100 µM | > 100 µM | > 100 µM | > 100 µM | > 100 µM | > 100 µM | > 100 µM | > 100 µM | > 100 µM | > 100 µM | > 100 µM | > 100 µM
8 | COc1ccc2ncn(-c3cc(O[C@H](C)c4ccccc4Cl)c(C(N)=O)s3)c2c1 | 0.0763 µM | 1.26 µM | 1.19 µM | 11.1 µM | 0.0213 µM | 3.99 µM | 0.00863 µM | 1.07 µM | 0.0246 µM | > 25 µM | 0.0164 µM | > 25 µM | 0.0348 µM | 5.51 µM | 1.41 µM | 17 µM
9 | COc1ccc2c(c1)[C@@]13CCCC[C@H]1[C@@H](C2)N(C)CC3=O |  | 66.6 µM |  | 40.7 µM |  | 32.7 µM |  | 32.9 µM |  | 53.9 µM |  | 31 µM |  | 31.5 µM |  | 32.9 µM
10 | O=C(Nc1ccc(-n2cc(-c3ccncc3)c(-c3ccc(Cl)c(O)c3)n2)cc1)Nc1ccc(Cl)c(C(F)(F)F)c1 | 1.39 µM | 4.43 µM | 3.64 µM | 15.1 µM | 1.7 µM | 3.44 µM | 1.48 µM | 3.11 µM | 2.02 µM | 4.69 µM | 1.43 µM | 3.11 µM | 1.78 µM | 3.25 µM | 1.66 µM | 3.6 µM
11 | N#CC(=NCCO)C1=C(O)c2ccccc2C1=O |  | > 100 µM |  | > 100 µM |  | > 100 µM |  | > 100 µM |  | > 100 µM |  | > 100 µM |  |  |  | > 100 µM
12 | CC(=O)O[C@H](C[C@H](C(C)C)N(C)C(=O)[C@@H](NC(=O)[C@H]1CCCCN1C)C(C)C)c1nc(C(=O)N[C@@H](Cc2ccccc2)C[C@H](C)C(=O)O)c(CCOCc2ccccc2)s1 | < 0.001 µM | > 10 µM | 0.108 µM | > 10 µM | < 0.001 µM | > 10 µM | < 0.001 µM |  | < 0.001 µM | > 10 µM |  |  | < 0.001 µM | 0.616 µM | 0.00486 µM | > 10 µM
13 | CCn1c(CO)nn(-c2cc(O[C@@H](C)C(F)(F)F)c(C(=O)Nc3c(F)cccc3Cl)cc2F)c1=O | > 22.3 µM | > 100 µM |  |  | < 0.0217 µM | > 100 µM | 0.0304 µM | > 100 µM | 3.05 µM | > 100 µM | < 0.0144 µM | > 100 µM | < 0.01 µM | > 100 µM | 1.02 µM | > 100 µM
14 | O=C(CSC(c1ccccc1)c1ccccc1)N/N=C/c1ccc(Cl)cc1Cl | 34.8 µM | > 100 µM | 26 µM | 72 µM | 21.9 µM | > 100 µM | 29.2 µM | 83 µM |  |  | 29.2 µM | 87.2 µM | 26.9 µM | 71 µM | 18.8 µM | 68 µM
15 | COc1ccc2c(O)cc3c(c2c1)[C@H](CCl)CN3C(=O)c1cc2cc(NC(=O)CCN3CCOCC3)ccc2[se]1 |  |  | < 0.001 µM |  | < 0.001 µM | < 0.001 µM | < 0.001 µM | > 10 µM | < 0.001 µM |  |  |  | < 0.001 µM | 0.00715 µM | < 0.001 µM | < 0.001 µM
16 | C[C@]12CC[C@@H]3c4ccc(O)cc4CC[C@H]3[C@@H]1CC[C@@H]2NS(=O)(=O)c1cccc(F)c1 | 3.88 µM | 19.1 µM | 4.14 µM | 13.8 µM | 2.92 µM | 11.3 µM |  |  | 6.12 µM | 18.2 µM | 3.41 µM | 11.9 µM | 5.27 µM | 16.9 µM | 2.04 µM | 10.3 µM
17 | COc1cc(C2=C(c3cn(C)c4ccccc34)COC2=O)cc(OC)c1OC | 0.159 µM | 3.58 µM | 0.569 µM | 5.61 µM |  |  | 0.0364 µM | 0.437 µM | 0.269 µM |  | 0.0349 µM | 1.17 µM | 0.429 µM | 5.2 µM | 0.226 µM | 6.37 µM
18 | CC(C)CNC(=O)O |  | > 100 µM |  | > 100 µM |  | > 100 µM |  | > 100 µM |  | > 100 µM |  | > 100 µM |  |  |  | > 100 µM
